Consider eight compounds from ChEMBL document CHEMBL1201862, “PubChem BioAssay data set” (2004).

Test systems include RXF 393; ACHN; UO-31; NCI-H23; SK-OV-3; SF-295; SN12C; SK-MEL-2; SW-620; UACC-257; SF-268; SNB-75; IGROV-1; SK-MEL-28; HOP-92; COLO 205; UACC-62; HCC 2998; RPMI-8226; TK-10.
Experiment in all cases: NCI anticancer screen, dose series, 48 h

The structures appear in SMILES notation.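 Results reflect a 48-hour exposure of cells in 96-well plates to compound at five concentrations. The concentration for 50% growth inhibition is given as GI50.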 Calls of active or inactive are those of the source. Rule as the data show it: active = GI50 up to about 1.1 µM and inactive = higher. A value given as a limit tells only on which side of the number the result lay.

Take `Cc1cn(C2CC(O)C(CO)C2C)c(=O)[nH]c1=O` (centres undefined): the GI50 in the experiment with RXF 393, with ACHN, with UO-31, in the experiment with NCI-H23, with SK-OV-3 and in the experiment on SF-295 was > 100 µM (inactive) throughout. In addition, the GI50 in the experiment with SN12C, in the experiment with SK-MEL-2, with SW-620, in the experiment with UACC-257, with SF-268 and with SNB-75 was > 100 µM (inactive) throughout. Besides, the GI50 with IGROV-1, in the experiment on SK-MEL-28, in the experiment with HOP-92, in the experiment with COLO 205, in the experiment with UACC-62 and in the experiment with HCC 2998 was > 100 µM (inactive) each time.

For `CC(C)=CCC/C(C)=C/CCC1(C)C=Cc2c(c3ccccc3oc2=O)O1` (centres undefined), the GI50 was 3.71 µM (inactive) with RXF 393; 15.5 µM (inactive) with UO-31; 14.8 µM (inactive) with NCI-H23; 27.3 µM (inactive) in the experiment with SK-OV-3; 18.8 µM (inactive) with SF-295; 16.8 µM (inactive) in the experiment on SN12C. The GI50 in the experiment with SK-MEL-2 was 17.4 µM (inactive); in the experiment on SW-620, 19.4 µM (inactive); in the experiment with UACC-257, 17.1 µM (inactive); in the experiment on SF-268 it was 20.6 µM (inactive); in the experiment on SNB-75, 13.4 µM (inactive); in the experiment with RPMI-8226, 18.2 µM (inactive). In addition, the GI50 in the experiment with IGROV-1 was 16.4 µM (inactive); in the experiment with SK-MEL-28 it was 16.1 µM (inactive); in the experiment with HOP-92, 12.2 µM (inactive); in the experiment on COLO 205, 19.1 µM (inactive); in the experiment on UACC-62, 10.2 µM (inactive); in the experiment on HCC 2998 it was 17.7 µM (inactive).

Consider `N#Cc1ccc(-c2nc(C#N)c(N)o2)cc1`, for which the GI50 in the experiment with RXF 393, in the experiment with ACHN, with UO-31, with NCI-H23, with SK-OV-3 and in the experiment with SF-295 was > 10 µM (inactive) throughout. For the same compound, the GI50 in the experiment with SN12C, with TK-10, in the experiment on SW-620, in the experiment with UACC-257, in the experiment on SF-268 and with SNB-75 was > 10 µM (inactive) each time. In addition, the GI50 in the experiment on RPMI-8226, in the experiment with IGROV-1, in the experiment with SK-MEL-28, with HOP-92, with COLO 205 and in the experiment with UACC-62 was > 10 µM (inactive) each time. In addition, the GI50 with HCC 2998 is > 10 µM (inactive).

Turning to `CC1=NC=C(O)c2ccccc2O1`, the GI50 was > 100 µM (inactive) in the experiment on RXF 393; > 100 µM (inactive) with ACHN; 85.5 µM (inactive) in the experiment with UO-31; > 100 µM (inactive) in the experiment on NCI-H23; > 100 µM (inactive) with SK-OV-3; 45 µM (inactive) with SF-295. The GI50 in the experiment on SN12C, in the experiment with SK-MEL-2, in the experiment with TK-10, with SW-620, in the experiment on UACC-257 and in the experiment on SF-268 was > 100 µM (inactive) throughout. The GI50 in the experiment on RPMI-8226, in the experiment with IGROV-1, with SK-MEL-28, with HOP-92, in the experiment on COLO 205 and in the experiment with UACC-62 was > 100 µM (inactive) each time. Further, in the experiment on HCC 2998, the GI50 was > 100 µM (inactive).

Turning to `CSc1cc(-c2cc3ccccc3o2)oc(=O)c1C#N`, the GI50 is 71.4 µM (inactive) in the experiment on RXF 393; > 100 µM (inactive) in the experiment with ACHN; 37.5 µM (inactive) in the experiment on UO-31; > 100 µM (inactive) in the experiment on NCI-H23; 40.9 µM (inactive) in the experiment with SF-295; > 100 µM (inactive) in the experiment on SN12C. For the same compound, the GI50 in the experiment on SK-MEL-2 is > 100 µM (inactive); in the experiment on TK-10, 21.8 µM (inactive); in the experiment with SW-620, > 100 µM (inactive); with UACC-257, > 100 µM (inactive); with SF-268 it was > 100 µM (inactive); in the experiment on SNB-75 it was 16.3 µM (inactive). In addition, the GI50 was 27.7 µM (inactive) in the experiment with RPMI-8226; 7.4 µM (inactive) in the experiment with IGROV-1; > 100 µM (inactive) with SK-MEL-28; 0.301 µM (active) in the experiment with HOP-92; > 100 µM (inactive) in the experiment with COLO 205; > 100 µM (inactive) with HCC 2998.

`CN(CCCNc1ccc2ncn3c4ccccc4c(=O)c1c23)CCCN1C(=O)c2cccc3cc([N+](=O)[O-])cc(c23)C1=O`: the GI50 with RXF 393 is 0.0267 µM (active); in the experiment on ACHN, 0.0012 µM (active); in the experiment with UO-31, 0.015 µM (active); in the experiment with NCI-H23, 0.0208 µM (active); in the experiment with SK-OV-3 it was 1.28 µM (inactive); with SF-295 it was 0.0134 µM (active). Also, the GI50 in the experiment with SN12C is 0.0125 µM (active); with SK-MEL-2, 1.58 µM (inactive); in the experiment on TK-10, 0.00221 µM (active); in the experiment on SW-620, 0.00325 µM (active); in the experiment on UACC-257, 0.0867 µM (active); with SF-268, 0.0247 µM (active). The GI50 is 0.018 µM (active) in the experiment with SNB-75; 0.0132 µM (active) in the experiment with RPMI-8226; 0.00948 µM (active) in the experiment on IGROV-1; 1.12 µM (inactive) in the experiment with SK-MEL-28; 1.04 µM (active) in the experiment with HOP-92; 0.00815 µM (active) in the experiment on COLO 205. The GI50 in the experiment with HCC 2998 was 0.0115 µM (active).

With `CC(C)(C)OC(=O)C1C(=O)NC(=O)CC1CC(OCc1ccccc1)C(COCc1ccccc1)OCc1ccccc1` (centres undefined), the GI50 in the experiment with RXF 393 was 2.55 µM (inactive); in the experiment on ACHN, 10.2 µM (inactive); with UO-31, 2.19 µM (inactive); with NCI-H23, 10.1 µM (inactive); in the experiment with SF-295, 8.38 µM (inactive); with SN12C it was 25 µM (inactive). The GI50 is > 100 µM (inactive) with TK-10; 9.33 µM (inactive) in the experiment on SW-620; 15.5 µM (inactive) in the experiment with UACC-257; 11.3 µM (inactive) in the experiment on SF-268; 3.07 µM (inactive) in the experiment on RPMI-8226; 23.2 µM (inactive) in the experiment on IGROV-1. Further, the values for the GI50 with SK-MEL-28, in the experiment with HOP-92 and in the experiment with HCC 2998 were 29.4 µM (inactive), 11.9 µM (inactive) and 3.81 µM (inactive), respectively.

`Oc1ccc2ccccc2c1/N=N/c1cccc2ccccc12`: the GI50 in the experiment with RXF 393 was 65.3 µM (inactive); with ACHN, > 100 µM (inactive); in the experiment on UO-31, > 100 µM (inactive); in the experiment on NCI-H23 it was > 100 µM (inactive); in the experiment with SK-OV-3, 52.6 µM (inactive); in the experiment on SF-295 it was > 100 µM (inactive). Besides, the GI50 was > 100 µM (inactive) in the experiment on SN12C; > 100 µM (inactive) with SK-MEL-2; > 100 µM (inactive) in the experiment with TK-10; > 100 µM (inactive) with SW-620; > 100 µM (inactive) with UACC-257; 55.5 µM (inactive) in the experiment with SF-268. Also, the GI50 is 23.6 µM (inactive) with SNB-75; 49.9 µM (inactive) with IGROV-1; > 100 µM (inactive) with HOP-92; > 100 µM (inactive) with COLO 205; > 100 µM (inactive) with UACC-62; > 100 µM (inactive) in the experiment on HCC 2998.
